Test results: paper PMC10704857 (Journal of medicinal chemistry, 2021)

Legend:
[1] = biological target: RTA depurination of yeast ribosomes (Ricinus communis, UniProt P02879); format: biochemical
[2] = tested on: Stx2a holotoxin in Vero cells; format: cell-based
cisplatin toxicity = format: cell-based

Row | Compound | fold improved IC50 relative to CC10501 [1] [fold] | inhibition of depurination by Stx2a [2] | effect on toxicity of cisplatin (cisplatin toxicity) | protection of yeast ribosomes from depurination [1]
1 | Cc1ccccc1-c1ccc(C(=O)O)s1 [RU-NT-70, 5-(o-Tolyl)thiophene-2-carboxylic Acid] | 10 |  |  | 
2 | Cc1cccc(C)c1-c1ccc(C(=O)O)s1 [RU-NT-93, 5-(2,6-Dimethylphenyl)thiophene-2-carboxylic Acid] |  | did not protect | did not alter | 
3 | CCc1ccccc1-c1ccc(C(=O)O)s1 [RU-NT-102, 5-(2-Ethylphenyl)thiophene-2-carboxylic Acid] | 12 | did not protect | did not alter | 
4 | O=C(O)c1ccc(-c2cccc3c2OCC3)s1 [RU-NT-105, 5-(2,3-Dihydrobenzofuran-7-yl)thiophene-2-carboxylic Acid] |  |  |  | not active
